Reference: patent publication US8889143B2, “Ii-key/HER-2/neu hybrid cancer vaccine” (Antigen Express, Inc., priority 2006, dated 2014)

What was measured:
[1] = Phase II trial: DTH reactions; assay type: in vivo, human; conditions: label = challenge peptide
Description: (§1) Immunologic response was monitored by measured delayed type hypersensitivity reactions (DTH) and ^3H-thymidine proliferative assays for both hybrid AE37 (LRMK+HER2/neu:776-790) and AE36 (unmodified HER2/neu:776-790) peptides.

[2] = Phase II trial: 3H-thymidine proliferative assays; assay type: cell-based, human; conditions: label = stimulating peptide
Description: as §1

[3] = system: PBMC; experiment: 3H-thymidine proliferation assay on patient PBMC; assay type: cell-based, human; conditions: PBMC of patients vaccinated with AE37, label = stimulating peptide
Description: Blood was drawn from patients prior to receiving each inoculation, at one month (post-vaccination), and at six months (long-term) after completing the series. Forty ml of peripheral blood was drawn into Vacutainer® CPT™ tubes (Becton Dickinson, Franklin Lakes, N.J.) and centrifuged for the isolation of PBMC populations. PBMC were washed in HBSS and re-suspended in culture medium (CM) consisting of RPMI-1640 containing 10% FCS (Gemini Bio-Products, Woodland, Calif.) supplemented with 1× penicillin/L-glutamine/streptomycin (Life Technologies, Gaithersburg, Md.) and used for setting up the immunomonitoring protocol/assays which consisted of ELISPOT (IFN-γ secretion) and proliferation (3H-thymidine incorporation) assays. All cultures were maintained in a humidified incubator at 37° C. in 5% CO2.
The PBMC population prepared from the patient's peripheral blood sample was also used for the monitoring of vaccine-specific proliferative activity of the T lymphocytes using a standard radioactive ^3H-thymidine incorporation assay. […] The filtermat was dried and placed in a sample bag with scintillation fluid (BetaScint, Perkin-Elmer) and counted using a scintillation counter (MicroBeta Trilux Scintillation Counter, Perkin-Elmer). The proliferative activity associated with the cultures was measured by the amount of thymidine incorporation which was determined as counts per minute (cpm). […]

[4] = system: PBMC; experiment: IFN-γ ELISPOT assays (ex vivo and 7-day) on patient PBMC; assay type: cell-based, human; conditions: PBMC of patients vaccinated with AE37; label = stimulating peptide
Description: Blood was drawn from patients prior to receiving each inoculation, at one month (post-vaccination), and at six months (long-term) after completing the series. Forty ml of peripheral blood was drawn into Vacutainer® CPT™ tubes (Becton Dickinson, Franklin Lakes, N.J.) and centrifuged for the isolation of PBMC populations. […]
The human IFN-γ ELISPOT Kit (BD-Pharmingen) was used for the ELISPOT assays. […] The plate was allowed to dry and the number of spots present in each well was counted and analyzed using a CTL-ImmunoSpot Analyzer (C.T.L. Cellular Technology Ltd, OH) (FIGS. 7-10). […]
The PBMC population prepared from the patient's peripheral blood (as described in the previous section) was resuspended at 2×10^6 cells/ml in CM and added as 1 ml aliquots to the 8 wells. […] At the end of the incubation period the plate was removed and the cells/cultures were harvested into separate tubes, spun down, resuspended in CM, and counted. […] The plate was allowed to dry and the number of spots present in each well was counted and analyzed using a CTL-ImmunoSpot Analyzer (C.T.L. Cellular Technology Ltd, OH) (FIGS. 11-14). […]

[5] = Her-2/neu+ breast cancer patients; cited from earlier work
[6] = system: hen egg white lysozyme (HEL)-specific T cell hybridoma; conditions: cited from earlier work
[7] = in vivo
Description: (§2) Toxicity is assessed after each inoculation using National Cancer Institute Common Terminology Criteria for Adverse Events v3.0 (CTCAE). […] Patients are clinically, radiographically, and pathologically monitored for recurrence of BCa.

[8] = in vivo; remark: listed apart in the source
Description: The dose escalation safety trial design is for five groups of three patients to receive escalating doses of AE37 with or without GM-CSF in six monthly inoculations. An additional six patients will be vaccinated at the optimal biologic dosing (OBD) in order to complete the 21 patient phase I trial. Enrolled patients were HLA typed, and HLA-A2^− patients and those HLA-A2^+ patients not interested in an alternative vaccine trial were vaccinated.
The National Institutes of Health Common Toxicity Criteria (CTC) (Version 2, Mar. 23, 1998) definitions of adverse events were applied. Both local toxicity at the injection sites as well as systemic toxicity were evaluated in all patients for all inoculations. By design, progression to the second stage occurred only if no significant toxicity occurred in the first stage.
Toxicities were graded per the National Institutes of Health Common Toxicity Criteria and reported on a scale zero to five (Table 3). Local toxicity dictated dose reductions as described above.

[9] = Phase Ib trial: delayed type hypersensitivity (DTH) reaction; assay type: in vivo, human; conditions: 100 μg AE37 intradermal without GM-CSF
Description: A direct in vivo measure of the vaccine's effectiveness is the DTH reaction. Patients were injected intradermally with 100 μg of AE37 (without GM-CSF) prior to the initiation of the vaccination series and one month after the completion of the vaccination regimen in the opposite limb to which they received the vaccine series. Patients were also injected intradermally with a parallel control (sterile saline, same volume) at a site on the back or extremity (opposite side from the vaccination site). The DTH reaction was measured in two dimensions at 48-72 hours using the sensitive ballpoint pen method and compared with control. Pre- and post-vaccination DTH reactions were also compared.

[10] = Phase Ib trial: local reaction and dose reductions; assay type: in vivo, human
Description: The study was performed as a two-stage safety trial to define the maximum tolerated dose of vaccine as well as the optimal dosing of the vaccine and GM-CSF. In the first stage (FIGS. 1-4), patient dose groups were given escalating amounts of the AE37 peptide. Three patients were assigned to each dosing group and were given the assigned dose of AE37 with a fixed initial dose of GM-CSF of 250 μg. This dose of GM-CSF was chosen based on our previous E75 trials. However, GM-CSF was reduced 50% for subsequent inoculations when local skin reaction exceeded 100 mm. All patients received monthly inoculations for six months. Dosing groups were as follows (AE37 (μg):#inoculations): 100:6, 500:6, 1000:6. Because each patient in the 500:6 group required significant and repeated reductions of GM-CSF, the 1000:6 group was initially inoculated without GM-CSF; GM-CSF was added back if local reaction from the two injection sites were non-confluent.
The hybrid peptide AE37 was mixed with GM-CSF (varying doses) and injected intradermally in the same extremity on a monthly basis. Each dosing group consisted of 3 patients. […] Stage I was designed to identify the maximum tolerated dose of vaccine. Stage II was designed to find the optimal biologic dose. Local toxicity dictated dose adjustments in each stage.
A local reaction ≧100 mm in at least one direction necessitates a reduction of GM-CSF dose for the subsequent vaccination (or reduction in vaccine dose if patient received no GM-CSF). […] FIGS. 1-4 show the dose of GM-CSF and the local reaction in each patient throughout the vaccine series.

[11] = Phase II trial: recurrence of breast cancer; assay type: in vivo, human; conditions: for Recurrences (patients/total) / Recurrences: median follow up of 13 months; for Recurrences: PG vs AG p=0.08
Description: as §2

[12] = Phase II trial AE37+GM-CSF versus GM-CSF alone: toxicity (CTCAE v3.0); conditions: six monthly inoculations, AG = GM-CSF alone
Description: as §2

[13] = AG group (GM-CSF alone), p>0.05 vs baseline
[14] = PG group (AE37 + GM-CSF), p<0.0001 vs baseline
[15] = PG (AE37 + GM-CSF), at 3, 6, and 12 months after the start of the vaccine series, p<0.015

For “Ac-GVGSPYVSRLLGICL-NH2 [AE36, native HER-2/neu peptide aa776-790, reference compound]”, the “Median DTH reaction at baseline” value ([1]; AG group (GM-CSF alone)) was 0.0±0.5 cm, the Median DTH reaction at 1 month after completion of the primary series [1, 13] was 0 mm and the “Median DTH reaction at baseline” value ([1]; PG group (AE37 + GM-CSF)) was 0.0±0.8 cm. The Median DTH reaction at 1 month after completion of the primary series [1, 14] was 15.3 ± 2.1 mm, the “Median proliferation response versus baseline” value ([2]; AG (GM-CSF alone)) was “did not significantly change” and the “Median proliferation response versus baseline” value [2, 15] was “significantly increased from baseline”. For the same substance, the “Peptide-specific proliferation of T cells after vaccination” value [3] was “increased capacity to divide and expand a specific clone”, the “Peptide-specific proliferation of T cells after vaccination” value ([3]; listed as native Her-2/neu peptide) was “increased CD4+ T cell response” and the “CD4+ T cell response (IFN-γ ELISPOT) to stimulating peptide after vaccination” value [4] was “increased CD4+ T cell response”.
For “GP2: immunogenic peptide of Her-2/neu used in clinical trials as vaccine (IISAVVGIL; UniProt P04626 654-662, looked up, fragment)”, the Safety in patients [5] is given as “safe in patients” and the “Stimulation of antigen specific immunity” value [5] is given as “effective in stimulating antigen specific immunity”.
In the case of LRMKLPK, the “Potency relative to the original 16-amino acid peptide” value [6] is given as “greater potency than the original 16-amino acid peptide”.
With Ac-LRMKGVGSPYVSRLLGICL-NH2 [AE37] the Overall safety [7] was “safe”, the “Grade 3 or greater local toxicities” value [8] was “no grade 3 or greater local toxicities” and the “Local toxicity grade, all patients” value [8] was “grade 1 or 2 local toxicity”. For the same substance, the “Maximum Toxicity, Local Toxicity Grade 1, number of patients (%)” value [8] was 3 (25)%, the “Maximum Toxicity, Local Toxicity Grade 2, number of patients (%)” value [8] was 9 (75%) and the “Maximum Toxicity, Local Toxicity Grade 3, number of patients (%)” value [8] was 0 (0%). For the same substance, the “Maximum Toxicity, Systemic Toxicity Grade 1, number of patients (%)” value [8] was 10 (83%), the “Maximum Toxicity, Systemic Toxicity Grade 2, number of patients (%)” value [8] was 0 (0%) and the “Maximum Toxicity, Systemic Toxicity Grade 3, number of patients (%)” value [8] was 0 (0%). For the same substance, the “Overall safety and tolerability” value [8] was “safe and well-tolerated with minimal systemic toxicity observed”, the Systemic toxicities reported [8] was “Only grade 1 systemic toxicities” and the “Median DTH reaction at baseline” value ([1]; AG group (GM-CSF alone)) was 0.0±0.7 cm. The Median DTH reaction at 1 month after completion of the primary series [1, 13] was 0 mm, the “Median DTH reaction at baseline” value ([1]; PG group (AE37 + GM-CSF)) was 0.0±0.7 cm and the Median DTH reaction at 1 month after completion of the primary series [1, 14] was 24.5 ± 2.6 mm. The “Median proliferation response versus baseline” value ([2]; AG (GM-CSF alone)) was “did not significantly change”, the “Median proliferation response versus baseline” value [2, 15] was “significantly increased from baseline” and the “DTH diameter of local reaction pre vaccine, range” value ([9]; before vaccination series) was 0-17 mm. For the same substance, the “DTH diameter of local reaction post-vaccine, range” value ([9]; one month after completion of series) was 12-106 mm, the “DTH mean diameter of local reaction post-vaccine” value ([9]; one month after completion of series, p<0.0001 vs pre) was 62 mm and the “DTH mean diameter of local reaction pre vaccine” value ([9]; read at 48-72 hours, before vaccination series) was 4.9 mm. The “Dose reductions required because of local reaction ≧100 mm” value (“Dose reductions required because” below) ([10]; first group 100:6 (100 μg AE37 + 250 μg GM-CSF)) was “required no reductions in dose”, the “Dose reductions required because” value ([10]; second group 500:6 (500 μg AE37 + 250 μg GM-CSF initially)) was “required a GM-CSF dose reduction by the third vaccine” and the “Dose reductions required because” value ([10]; third group 1000:6 (1000 μg AE37 initiated without GM-CSF)) was “two of the three patients in this group required reduction of vaccine dose on multiple occasions”. The “Recurrences (patients/total)” value [11] was 0/49, the Recurrences [11] was 0.0% and the “Protection against BCa recurrences” value ([11]; phase II) was “protects against BCa recurrences”.
With GM-CSF the Local toxicities ([12]; PG = 500 mcg AE37 + 62.5 or 125 mcg GM-CSF) was “no grade 4-5 local toxicities”, the Systemic toxicities ([12]; PG = AE37 + GM-CSF) was “no grade 3-5 systemic toxicities” and the “Recurrences (patients/total)” value [11] was 5/71. It also gave a Recurrences [11] of 7.0%.
In the case of “LRMK [four-amino-acid Ii-Key moiety, Ii 77-80]”, the “Activity retained relative to LRMKLPK” value [6] is given as “at least 50%”.
